Literature values, collected in patent US20240366823A1, “INSTANT ACTION AEROSOL FOR AIR SANITIZATION AND DISINFECTION” (Reckitt Benckiser LLC, priority 2021, published 2024).

What was measured:
[1] = at 20° C.
[2] = ethanol, water

vapor pressure [1]: 0.02 Pa
Structure (SMILES): OCCOCCOCCO [TEG, Triethylene glycol]
solubility [2]: soluble in ethanol and miscible with water
